Where two headings read alike, the source gives them in different places. Blank lines part the entries; values can stand above or below the compound they belong to.
Key:
Experiment in all cases: biochemical
Design in all cases: Eurofins DiscoverX kinase panel, competitive binding assay at 1 uM, percent of DMSO control
Conditions in all cases: competitive binding, percent of DMSO control
bRAF = bRAF (Homo sapiens, UniProt P15056)
Method in brief: (§1)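 Competitive binding assay across a 96-kinase panel with KIF18A compounds at 1 µM; values given as percentage of control (POC), single experiment.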

Stk33 = Stk33 (Homo sapiens, UniProt Q9BYT3)
Stk33, sequence (Q9BYT3 whole entry): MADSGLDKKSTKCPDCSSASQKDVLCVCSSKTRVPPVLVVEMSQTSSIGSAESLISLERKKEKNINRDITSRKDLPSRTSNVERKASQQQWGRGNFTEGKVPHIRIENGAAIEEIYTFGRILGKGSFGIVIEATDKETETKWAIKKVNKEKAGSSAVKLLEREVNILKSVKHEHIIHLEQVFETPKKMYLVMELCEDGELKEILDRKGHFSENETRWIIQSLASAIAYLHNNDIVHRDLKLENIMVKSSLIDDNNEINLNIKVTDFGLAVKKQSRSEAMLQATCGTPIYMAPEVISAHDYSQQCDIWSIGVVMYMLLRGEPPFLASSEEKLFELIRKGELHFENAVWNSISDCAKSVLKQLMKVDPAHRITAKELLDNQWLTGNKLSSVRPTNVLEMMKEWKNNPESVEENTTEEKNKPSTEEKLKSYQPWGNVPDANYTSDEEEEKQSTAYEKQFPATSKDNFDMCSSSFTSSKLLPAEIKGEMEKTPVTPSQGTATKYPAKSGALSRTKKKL
Method in brief: as §1

CLK4 = CLK4 (Homo sapiens, UniProt Q9HAZ1)
CLK4, sequence (Q9HAZ1 whole entry): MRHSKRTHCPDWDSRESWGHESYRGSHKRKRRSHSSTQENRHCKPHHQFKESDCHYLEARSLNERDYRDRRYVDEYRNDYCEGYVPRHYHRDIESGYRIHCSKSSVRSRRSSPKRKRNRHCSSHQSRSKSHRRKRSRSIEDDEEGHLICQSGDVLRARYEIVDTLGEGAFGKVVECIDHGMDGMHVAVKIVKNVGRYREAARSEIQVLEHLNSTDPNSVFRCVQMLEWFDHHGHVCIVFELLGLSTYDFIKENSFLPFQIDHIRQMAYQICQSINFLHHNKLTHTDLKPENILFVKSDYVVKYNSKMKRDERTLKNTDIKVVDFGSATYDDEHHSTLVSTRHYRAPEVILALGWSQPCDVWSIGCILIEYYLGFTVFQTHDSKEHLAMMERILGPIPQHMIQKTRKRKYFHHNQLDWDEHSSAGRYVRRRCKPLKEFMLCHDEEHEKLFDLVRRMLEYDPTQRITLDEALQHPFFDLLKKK
Method in brief: as §1

Brk = biological target: T1, Brk (Homo sapiens, UniProt Q13882)
T1 construct: gene PTK6
T1 sequence (Q13882 whole entry): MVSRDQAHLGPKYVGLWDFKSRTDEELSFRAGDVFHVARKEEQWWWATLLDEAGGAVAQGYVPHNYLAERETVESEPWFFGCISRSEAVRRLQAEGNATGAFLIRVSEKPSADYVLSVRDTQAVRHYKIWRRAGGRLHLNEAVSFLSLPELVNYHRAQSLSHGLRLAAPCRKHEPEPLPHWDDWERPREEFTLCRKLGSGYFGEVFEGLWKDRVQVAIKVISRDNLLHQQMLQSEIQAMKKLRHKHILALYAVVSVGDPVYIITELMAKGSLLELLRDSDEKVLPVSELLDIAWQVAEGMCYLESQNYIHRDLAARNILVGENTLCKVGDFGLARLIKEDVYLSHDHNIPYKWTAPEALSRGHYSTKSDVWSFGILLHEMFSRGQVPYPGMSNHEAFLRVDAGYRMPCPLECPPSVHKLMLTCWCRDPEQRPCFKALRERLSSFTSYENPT
Method in brief: as §1

EPHB3 = biological target: T2, EPHB3 (Homo sapiens, UniProt P54753)
T2 sequence (P54753 1-998): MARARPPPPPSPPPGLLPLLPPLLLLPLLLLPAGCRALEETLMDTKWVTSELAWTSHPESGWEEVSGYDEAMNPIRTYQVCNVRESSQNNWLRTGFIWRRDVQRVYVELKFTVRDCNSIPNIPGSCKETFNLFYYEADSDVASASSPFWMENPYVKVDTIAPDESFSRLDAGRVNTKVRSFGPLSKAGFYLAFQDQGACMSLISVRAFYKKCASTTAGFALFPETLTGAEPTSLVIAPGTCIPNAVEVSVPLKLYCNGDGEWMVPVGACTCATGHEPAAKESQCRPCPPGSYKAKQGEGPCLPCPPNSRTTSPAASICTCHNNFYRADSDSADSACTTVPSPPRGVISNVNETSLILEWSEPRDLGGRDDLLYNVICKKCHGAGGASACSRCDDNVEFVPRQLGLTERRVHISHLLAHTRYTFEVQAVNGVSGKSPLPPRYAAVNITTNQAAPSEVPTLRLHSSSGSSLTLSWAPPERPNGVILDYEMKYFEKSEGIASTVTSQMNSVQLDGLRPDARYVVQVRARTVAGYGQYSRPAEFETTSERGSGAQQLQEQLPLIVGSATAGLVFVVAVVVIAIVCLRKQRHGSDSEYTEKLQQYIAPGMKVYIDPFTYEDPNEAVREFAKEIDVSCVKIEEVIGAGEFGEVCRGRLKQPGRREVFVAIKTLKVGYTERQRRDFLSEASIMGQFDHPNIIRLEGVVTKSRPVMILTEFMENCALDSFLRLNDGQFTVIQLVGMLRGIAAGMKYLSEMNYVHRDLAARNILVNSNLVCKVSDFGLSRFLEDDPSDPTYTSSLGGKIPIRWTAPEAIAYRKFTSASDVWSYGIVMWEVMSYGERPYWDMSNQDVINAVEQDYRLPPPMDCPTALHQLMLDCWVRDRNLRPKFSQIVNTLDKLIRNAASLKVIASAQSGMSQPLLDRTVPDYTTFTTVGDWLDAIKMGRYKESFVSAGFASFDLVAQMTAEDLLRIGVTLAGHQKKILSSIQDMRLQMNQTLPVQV
Method in brief: as §1

TIE2 = biological target: T3, TIE2 (Homo sapiens, UniProt Q02763)
T3 construct: gene TEK
T3 sequence (Q02763 whole entry): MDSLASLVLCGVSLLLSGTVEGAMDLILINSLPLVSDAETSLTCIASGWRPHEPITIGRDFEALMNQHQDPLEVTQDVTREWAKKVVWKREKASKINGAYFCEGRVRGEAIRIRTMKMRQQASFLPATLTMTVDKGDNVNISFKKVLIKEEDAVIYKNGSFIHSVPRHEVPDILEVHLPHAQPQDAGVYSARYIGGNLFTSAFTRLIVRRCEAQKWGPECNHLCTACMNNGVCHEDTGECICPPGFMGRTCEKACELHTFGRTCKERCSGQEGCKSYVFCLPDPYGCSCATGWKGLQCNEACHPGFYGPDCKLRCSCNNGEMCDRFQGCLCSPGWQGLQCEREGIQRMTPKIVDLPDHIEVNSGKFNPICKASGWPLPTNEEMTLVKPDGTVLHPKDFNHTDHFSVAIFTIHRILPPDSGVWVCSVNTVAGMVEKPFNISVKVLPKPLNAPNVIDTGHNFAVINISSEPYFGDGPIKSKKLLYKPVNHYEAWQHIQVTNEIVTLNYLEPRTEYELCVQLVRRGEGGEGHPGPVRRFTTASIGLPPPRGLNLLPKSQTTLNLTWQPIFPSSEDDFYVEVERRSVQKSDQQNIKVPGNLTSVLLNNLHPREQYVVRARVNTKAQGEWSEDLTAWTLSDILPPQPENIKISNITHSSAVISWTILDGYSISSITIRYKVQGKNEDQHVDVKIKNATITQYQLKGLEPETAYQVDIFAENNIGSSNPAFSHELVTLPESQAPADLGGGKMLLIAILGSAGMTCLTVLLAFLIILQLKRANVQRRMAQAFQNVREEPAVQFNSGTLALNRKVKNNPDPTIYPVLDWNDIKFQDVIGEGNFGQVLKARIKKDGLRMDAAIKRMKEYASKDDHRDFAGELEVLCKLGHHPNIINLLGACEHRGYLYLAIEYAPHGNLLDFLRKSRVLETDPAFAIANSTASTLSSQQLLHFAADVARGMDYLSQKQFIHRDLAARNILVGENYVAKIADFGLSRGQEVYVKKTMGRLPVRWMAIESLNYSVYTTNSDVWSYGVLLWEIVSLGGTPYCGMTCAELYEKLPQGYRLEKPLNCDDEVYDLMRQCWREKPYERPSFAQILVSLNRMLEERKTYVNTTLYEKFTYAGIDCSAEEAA
Method in brief: as §1

MLTK = biological target: T4, MLTK (Homo sapiens, UniProt Q9NYL2)
T4 construct: gene MAP3K20
T4 sequence (Q9NYL2 whole entry): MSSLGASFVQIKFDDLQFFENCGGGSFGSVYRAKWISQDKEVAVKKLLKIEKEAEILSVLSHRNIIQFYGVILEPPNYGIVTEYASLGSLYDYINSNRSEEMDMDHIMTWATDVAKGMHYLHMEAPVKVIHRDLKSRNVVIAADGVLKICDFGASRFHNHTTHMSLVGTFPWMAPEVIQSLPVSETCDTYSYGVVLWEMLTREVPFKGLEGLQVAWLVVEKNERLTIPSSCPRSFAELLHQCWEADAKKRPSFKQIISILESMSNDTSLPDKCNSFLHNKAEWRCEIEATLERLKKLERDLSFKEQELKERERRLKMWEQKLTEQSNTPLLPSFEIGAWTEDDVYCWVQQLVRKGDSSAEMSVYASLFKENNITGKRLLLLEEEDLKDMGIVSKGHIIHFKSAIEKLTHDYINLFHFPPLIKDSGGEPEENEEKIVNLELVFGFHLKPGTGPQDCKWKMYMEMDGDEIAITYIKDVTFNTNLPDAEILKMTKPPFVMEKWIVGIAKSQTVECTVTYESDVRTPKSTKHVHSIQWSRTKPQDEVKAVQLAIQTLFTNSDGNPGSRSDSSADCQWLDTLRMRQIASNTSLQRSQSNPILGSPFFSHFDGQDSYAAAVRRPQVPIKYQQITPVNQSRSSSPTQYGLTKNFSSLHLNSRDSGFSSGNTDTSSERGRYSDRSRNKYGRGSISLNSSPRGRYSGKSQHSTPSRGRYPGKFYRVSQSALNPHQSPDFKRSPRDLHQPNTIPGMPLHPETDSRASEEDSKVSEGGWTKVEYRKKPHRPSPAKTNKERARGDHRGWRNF
Method in brief: as §1

[1] = read-out: Kinome Profiling performed by Eurofins DiscoverX / AM-0277, 1.0 µM / POC
[2] = read-out: Kinome Profiling performed by Eurofins DiscoverX / AM-1882, 1.0 µM / POC
[3] = read-out: Kinome Profiling performed by Eurofins DiscoverX / AM-5308, 1.0 µM / POC

bRAF, sequence (P15056 whole entry): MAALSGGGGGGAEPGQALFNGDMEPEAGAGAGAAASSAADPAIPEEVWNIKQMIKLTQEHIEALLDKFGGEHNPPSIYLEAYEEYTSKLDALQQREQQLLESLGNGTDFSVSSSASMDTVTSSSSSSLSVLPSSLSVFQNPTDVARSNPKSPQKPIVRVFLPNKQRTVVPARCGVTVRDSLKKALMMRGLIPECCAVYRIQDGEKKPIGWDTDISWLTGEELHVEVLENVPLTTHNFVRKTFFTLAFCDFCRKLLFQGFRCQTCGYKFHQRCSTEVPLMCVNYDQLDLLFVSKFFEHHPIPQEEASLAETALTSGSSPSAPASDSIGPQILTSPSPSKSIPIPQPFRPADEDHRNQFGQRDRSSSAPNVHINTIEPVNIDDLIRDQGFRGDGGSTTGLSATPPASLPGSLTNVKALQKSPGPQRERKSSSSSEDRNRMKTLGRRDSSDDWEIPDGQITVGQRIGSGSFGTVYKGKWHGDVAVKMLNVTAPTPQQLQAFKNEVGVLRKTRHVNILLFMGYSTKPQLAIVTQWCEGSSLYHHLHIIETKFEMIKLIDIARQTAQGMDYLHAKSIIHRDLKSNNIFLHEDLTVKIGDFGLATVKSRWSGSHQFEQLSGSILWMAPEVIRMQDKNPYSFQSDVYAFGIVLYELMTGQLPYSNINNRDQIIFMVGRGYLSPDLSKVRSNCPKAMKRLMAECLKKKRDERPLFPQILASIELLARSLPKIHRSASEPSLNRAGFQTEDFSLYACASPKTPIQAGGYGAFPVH

remaining activity at 1 µM (bRAF; [1]): 100% | remaining activity at 1 µM (Stk33; [1]): 86% | remaining activity at 1 µM (CLK4; [1]): 97% | remaining activity at 1 µM (Brk; [1]): 95% | remaining activity at 1 µM (EPHB3; [1]): 87% | remaining activity at 1 µM (TIE2; [1]): 77% | remaining activity at 1 µM (MLTK; [1]): 90%
SMILES: CC(C)(CO)Nc1ccc(C(=O)Nc2cccc(S(=O)(=O)C3CCCC3)c2)c(N2CCC3(CC2)CC3)n1 [AM-0277]

remaining activity at 1 µM (bRAF; [2]): 94.5% | remaining activity at 1 µM (Stk33; [2]): 98% | remaining activity at 1 µM (CLK4; [2]): 100% | remaining activity at 1 µM (Brk; [2]): 94% | remaining activity at 1 µM (EPHB3; [2]): 98% | remaining activity at 1 µM (TIE2; [2]): 94.5% | remaining activity at 1 µM (MLTK; [2]): 84.5%
SMILES: CC(C)(C)NS(=O)(=O)c1cccc(NC(=O)c2ccc(S(=O)(=O)NC(C)(C)C)cc2N2CCC3(CC2)CC3)c1 [AM-1882]

remaining activity at 1 µM (bRAF; [3]): 92.5% | remaining activity at 1 µM (Stk33; [3]): 89% | remaining activity at 1 µM (CLK4; [3]): 100% | remaining activity at 1 µM (Brk; [3]): 93.5% | remaining activity at 1 µM (EPHB3; [3]): 44% | remaining activity at 1 µM (TIE2; [3]): 90% | remaining activity at 1 µM (MLTK; [3]): 100%
SMILES: C[C@@H]1CN(c2cccc(NC(=O)c3ccc(NS(=O)(=O)CCO)cc3N3CCC4(CC3)CC4)n2)CCO1 [AM-5308]
